Test results reported in patent US7008937B2, “Porphyrins and metalloporphyrins for inhibiting heme iron uptake” (Frontier Scientific, Inc., priority 2003, dated 2006).
Like-named read-outs stand apart in the source and are kept apart here.

How the values were obtained:
rat duodenum = details: for inhibition of incorporation of radiolabeled heme into the animals: 4 animals (FIG. 8)
Description: In this assay, Wistar rats were first anesthetized with pentobarbital. Wistar rats are from a strain originally developed at the Wistar Institute and commonly used all over the world for research. Following anesthesia, a midline incision was made in each of the rats. The duodenum of each animal was isolated between the pylorus and the ligament of Trietz by umbilical tape. The bile duct of each animal was then identified and ligated. Following this, a syringe was passed through the pylorus of each animal, and one ml of radiolabeled heme solution was introduced into the duodenum. The heme solutions used contained either only heme, or additionally included an appropriate concentration of an inhibitor to be evaluated.
Following introduction of the heme or heme/inhibitor solution, the duodenal loop of each animal was tied off. Heme absorption was allowed to continue for a period of 10 minutes. Following this absorption period, the duodenal loop of each rat was removed and the animal was killed. The rat carcass was counted in a whole body counter to determine the amount of radiolabeled heme isotope absorbed into the body from the duodenum.
The Wistar rats were divided into three groups of 4 animals each. Group 1 was used as a control group.
In this experiment, 5 animals were utilized in each of the control and testing groups. The incubation time period was extended to be fifteen minutes. […] The points seen in FIG. 9 represent the measurements obtained individual rats, while the shaded bars represent the mean value for each group of animals.

[1] = 50 micromolar in duodenal loop, 15 minutes
Procedure: Subsequently, cardiac punctures were performed on the rats, and between 0.45 and 1.3 ml of blood were collected from each. The plasma of the blood samples was separated and precipitated overnight with 10% trichloroacetic acid.

K562 cells = tested on: K562 cells
Description: In a next set of experiments, K562 cells were used to test toxicity of the porphyrins of the invention. K562 cells are erythroleukemia cells from a cell line derived from a chronic myeloid leukemia patient in blast crisis. K562 cells were selected for this testing based on their ability to grow in suspension. This characteristic renders cell counting more reliable.

IEC-6 cells [2] = tested on: IEC-6 cells
IEC-6 cells [3] = assay: Inhibition of in vitro uptake of radiolabeled iron from heme in IEC-6 cells
Procedure: In a first assay, confluent monolayers of IEC-6 cells were incubated with radioactive iron-labeled heme. […] In this assay, the heme had been previously solubilized in taurodeoxycholate micelles. Twelve-well tissue culture plates were used with 1 ml of phosphate-buffered saline (or “PBS”) containing Ca, Mg and glucose. Cells were incubated with the heme solution and a designated inhibitor for times indicated at a temperature of 37° C.
After incubation, the cells were washed with 1 ml of the same buffer at 4° C. three times. The cells were then solubilized by the addition of 1 ml of water and sonicated for 10 minutes in a Branson sonicator. The cells were removed by titration and transferred to 75 ml tubes. Subsequently, the radioactivity of the cells was determined using a gamma counter.
For an initial screen, each compound was added at a concentration of 800 micromolar, and given a timed uptake period of over 60 minutes. […] The concentration of inhibitor required to get a 50% decrease in heme uptake inhibition counts was then determined.

[4] = 800 μM
Procedure: TMP (free base porphyrin) was used at 160 and 800 μM concentrations in the taurodeoxycholate-solubilized heme solution.

[5] = one of two cell lines (summary)
[6] = read-out: concentration giving about 50% inhibition of heme iron uptake, titration with increasing amounts of inhibitor, uptake determined after 30 minutes

## C[n+]1ccc(-c2c3nc(c(-c4cc[n+](C)cc4)c4ccc([n-]4)c(-c4cc[n+](C)cc4)c4nc(c(-c5cc[n+](C)cc5)c5ccc2[n-]5)C=C4)C=C3)cc1.[Cr+3] [Cr-TMP, Cr (III) meso-tetra(N-methyl-4-pyridyl) porphine]
Rat duodenum; 50 μM, 10 minutes
  inhibition of incorporation of radiolabeled heme into the animals: almost complete inhibition
Rat duodenum; 200 μM, 10 minutes
  inhibition of incorporation of radiolabeled heme into the animals: almost complete inhibition
Rat duodenum; about 50 μM, 15 minutes (FIG. 9)
  in vivo inhibition of heme-iron uptake (conclusion): feasible in vivo
[1]
  absorption across the intestinal wall: essentially no absorption
  plasma level, bounded by limit of sensitivity of the measurement: < 40 nM
[1]; 447 nm
  difference in plasma absorbance between control and treated groups: no difference
K562 cells; 50 micromolar in growth media (FIG. 10)
  growth rate of the cells: not decreased
K562 cells; concentrations above 50 micromolar, growth slowed, cells remained viable
  cell growth at higher concentrations: Some inhibition of cell growth
K562 cells; [5]
  toxicity at a high concentration relative to contemplated therapeutic dosage: no toxicity
K562 cells; two weeks of exposure
  toxicity after prolonged exposure: No toxicity
IEC-6 cells [2]; 50 μM, up to 7 days' exposure (FIG. 11)
  growth rate or extent: no decrease in growth rate or extent
IEC-6 cells [2]; day 4 (FIG. 12)
  concentration up to which no toxicity was observed: about 100 μM
IEC-6 cells [2]; [5]
  toxicity at a high concentration relative to contemplated therapeutic dosage: no toxicity
IEC-6 cells [3]
  concentration range in which active as inhibitor: low micromolar range
IEC-6 cells [3]; 800 μM, 60 minutes
  toxicity to the cell monolayer under the inverted microscope: No toxicity to the cell monolayer was observed
IEC-6 cells [3]; 800 μM, over 60 minutes, 37 degrees (FIG. 3)
  inhibition of heme iron uptake, timed uptake: inhibition to approximately background
IEC-6 cells [3]; metal chelates of TMP
  inhibitory ability compared with the free base porphyrin: effective to still another order of magnitude
IEC-6 cells [3]; [6]
  IC50: ~4 µM

## C[n+]1ccc(-c2c3nc(c(-c4cc[n+](C)cc4)c4ccc([nH]4)c(-c4cc[n+](C)cc4)c4nc(c(-c5cc[n+](C)cc5)c5ccc2[nH]5)C=C4)C=C3)cc1 [TMP, meso-tetra(N-methyl-4-pyridyl) porphine]
Rat duodenum; 800 μM, 10 minutes
  variation of inhibition in the group of animals: considerable variation in inhibition
Rat duodenum; 160 and 800 μM in heme solution, 10 minutes (FIG. 7)
  inhibition of incorporation of iron from heme into the body of the animal: inhibition of iron uptake was observed
[4]
  precipitation in the heme solution: slight precipitate
IEC-6 cells [3]; read-out: concentration at which heme uptake is inhibited (as seen in FIGS. 2 and 4), summary of Tables 1 and 2
  IC50: ~750 µM
IEC-6 cells [3]; [6]
  IC50: ~100 µM
